Measurements taken from US6566378B1, “Pesticidal compositions and pesticidal methods” (Sumitomo Chemical Company, Limited, priority 1999, dated 2003).

Legend:
Assay type in all cases: in vivo
[1] = test system: Helicoverpa armigera (cotton bollworm); assay: Test Example 1: test for controlling damage by Helicoverpa armigera on potted cabbage; conditions: spray on potted cabbage, two fourth-instar larvae, damage after 6 days
Experimental: Twenty parts of Compound (I) were dissolved in 70 parts of Solvesso 150 (solvent manufactured by Exxon Chemical), and 6 parts of Toximul 3454F (surfactant manufactured by Stepan) and 4 parts of Toximul 3455F (surfactant manufactured by Stepan) were added thereto and mixed well to give an emulsifiable concentrate. An aqueous dilution of the emulsifiable concentrate and an aqueous dilution of a water-soluble formulation of Compound A (commercial name: Mospilan water-soluble formulation produced by Kumiai Chemical Industry) were mixed together to make a designated concentration, to which a spreading agent (New Rinou manufactured by Nihon Nohyaku) was added to make a volume of the spreading agent 1/3000. The prepared application solution was sprayed over potted cabbage (at the fourth to fifth leaf stage) at a volume of 40ml per pot. The treated plants were air dried, and then two fourth-instar larvae of Helicoverpa armigera (cotton bollworm) were set free. After 6 days, the damage (%) of the plant was observed. Each controlling ratio (%) was calculated by the following equation based on the damage (%) of non-treated plant.
(§1) Controlling ratio (%)=100×(Damage of non-treated plant−Damage of treated plant)/ Damage of non-treated plant

[2] = test system: Aphis gossypii (cotton aphid); assay: Test Example 3: test for controlling damage by Aphis gossypii on potted cucumber; conditions: spray on potted cucumber, two days after treatment, index near zero shows high controlling effect
Experimental: (§2) Twenty parts of Compound (I) were dissolved in 70 parts of Solvesso 150 (mentioned above), and 6 parts of Toximul 3454F (mentioned above) and 4 parts of Toximul 3455F (mentioned above) were added thereto and mixed well to give an emulsifiable concentrate. An aqueous dilution of the emulsifiable concentrate and an aqueous dilution of a water-soluble formulation of Compound A (commercial name : Mospilan water-soluble formulation produced by Kumiai Chemical Industry) were mixed together to make a designated concentration, to which a spreading agent (New Rinou manufactured by Nihon Nohyaku) was added to make a volume of the spreading agent 1/5000.
(§3) About thirty Aphis gossypii (cotton aphid) in various growth stages were set free on potted cucumber (at the first leaf stage), and then the prepared application solution was sprayed over at a volume of 40ml per pot. The treated plants were air dried, covered for preventing escape of the tested aphids and invasion from the outside and set in a greenhouse (25° C.).
(§4) Corrected indices were calculated by the following equation based on prerecorded parasitic number of tested aphids on the tested plant before treatment and the parasitic number after two days from the treatment.
Corrected index=100×(T2DAT/Tpre)/(C2DAT/Cpre)
T2DAT: Number of the tested aphids on the plant after two days from the treatment […]

[3] = test system: Helicoverpa armigera (cotton bollworm); assay: Test Example 2: test for controlling damage by Helicoverpa armigera on potted cabbage; conditions: spray on potted cabbage, five fourth-instar larvae, damage after 7 days
Experimental: An aqueous dilution of the emulsifiable concentrate and an aqueous dilution of an emulsifiable concentrate, obtained by mixing 10 parts of Compound B or Compound C, 40 parts of xylene, 40 parts of dimethylformamide and 10 parts of Solpol 3005X, were mixed together to make a designated concentration, to which a spreading agent (New Rinou manufactured by Nihon Nohyaku) was added to make a volume of the spreading agent 1/3000. The prepared application solution was sprayed over potted cabbage (at the fourth to fifth leaf stage) at a volume of 40ml per pot. The treated plants were air dried, and then five fourth-instar larvae of Helicoverpa armigera (cotton bollworm) were set free. After 7 days, the damage (%) of the plant was observed. Each controlling ratio (%) was calculated by the following equation based on the damage (%) of non-treated plant.
as §1

[4] = test system: Aphis gossypii (cotton aphid); assay: Test Example 4: test for controlling damage by Aphis gossypii on potted cucumber; conditions: spray on potted cucumber, two days after treatment
Experimental: as §2, with “an emulsifiable concentrate, obtained by mixing 10 parts” for “a water-soluble formulation”, “C, 40 parts of xylene, 40 parts of dimethylformamide and 10 parts of Solpol 3005X,” for “A (commercial name : Mospilan water-soluble formulation produced by Kumiai Chemical Industry)”
as §3, §4

With `C/C(=N\C#N)N(C)Cc1ccc(Cl)nc1` [Compound A, (E)-N^1-[(6-chloro-3-pyridyl)methyl]-N^2-cyano-N^1-methylacetamidine, reference compound] the “Controlling ratio (%)” value ([1]; 100 ppm) was 0% and the Corrected index ([2]; 0.125 ppm) was 29.
In the case of `CN1COCN(Cc2cnc(Cl)s2)/C1=N/[N+](=O)[O-]` [Compound C, 3-(2-chlorothiazol-5-ylmethyl)-5-methyl-4-nitroiminoperhydro-1,3,5-oxadiazine, reference compound], the “Controlling ratio (%)” value ([3]; 100 ppm) is reported as 0% and the Corrected index ([4]; 0.25 ppm) is reported as 44.
For `FC(F)(F)c1ccc(OCCCOc2c(Cl)cc(OCC=C(Cl)Cl)cc2Cl)nc1` [(I), 3,5-dichloro-1-(3,3-dichloro-2-propenyloxy)-4-[3-(5-trifluoromethylpyridin-2-yloxy)propoxy]benzene], the “Controlling ratio (%)” value ([1]; 2.5 ppm) was 25%, the “Controlling ratio (%)” value ([1]; 5.0 ppm) was 50% and the “Controlling ratio (%)” value ([3]; 2.5 ppm) was 20%. For the same compound, the “Controlling ratio (%)” value ([3]; 4 ppm) was 40%, the Corrected index ([2]; 0.5 ppm) was 83 and the Corrected index ([4]; 0.5 ppm) was 83.
With `CN/C(=N\[N+](=O)[O-])NCC1CCOC1` (centres unmarked) [Compound B, 1-[(tetrahydro-3-furanyl)methyl]-2-nitro-3-methylguanidine, reference compound] the “Controlling ratio (%)” value ([3]; 200 ppm) was 40%.
